Source: US20200087340A1, “LIF/LIFR ANTAGONIST IN ONCOLOGY AND NONMALIGNANT DISEASES” (Evestra, Inc., priority 2018, published 2020)

Experiments:
[1] = tested on: LIF-overexpressing MCF-7 (MCF-7 LIF) human breast cancer cells; experiment: LIF specificity assay, cytotoxicity; type: cell-based; conditions: cytotoxicity MCF-7 vs. MCF-7 LIF (specificity towards LIF)
[2] = tested on: FC 1295 and imPSCc-2 organoids; experiment: Pancreatic cancer / stellate cell line derived organoid system; type: cell-based, Murine; conditions: as compared to control
Description: Most solid tumors have extensive stroma that not only facilitates the tumor progression but also impedes the delivery of the chemotherapeutic agents. Due to lack of any in-vitro system, presently it is difficult to evaluate any stroma-targeted therapies. Therefore, we developed an organoid system using labeled pancreatic cancer and stellate cell lines. Murine (FC 1295 and […]-2) cell lines cultured in different combinations were grown as an organoid system using matrigel. The organoids, starting day four were treated with either gemcitabine or EC359, a novel mifepristone derived steroidal cytotoxic agent that targets tumor stroma, or both in combination. qRT-PCR analysis of activated stroma signature genes was performed on the mRNA isolated from different treatment groups. H&E, immunohistochemistry, and western blot analysis were performed to further validate our findings. […] Our novel cell line derived organoid model can be utilized for fast, and inexpensive evaluation of stroma-targeted therapies.

SMILES	Fold Change [1]	also measured
C#CC(F)(F)[C@]1(O)CCC2C3CCC4=CC(=O)CCC4=C3C(c3ccc(C4CCCCC4)cc3)C[C@@]21C (stereo partly drawn) [EC360, 17α-(1,1-difluoro-2-propyn-1-yl)-17β-hydroxy-11β-[4-p-(cyclohexyl)phenyl]estra-4,9-dien-3-one]	2	–
C#CC(F)(F)[C@]1(O)CCC2C3CCC4=CC(=O)CCC4=C3C(c3ccc(-n4ccnc4)cc3)C[C@@]21C (some centres unmarked) [EC351]	–	melting point: 175 to 178 °C
C#CC(F)(F)[C@]1(O)CCC2C3CCC4=CC(=O)CCC4=C3C(c3ccc(S(=O)(=O)C4CC4)cc3)C[C@@]21C (stereo partly drawn) [EC361, 17α-(1,1-difluoro-2-propyn-1-yl)-17β-hydroxy-11β-[4-p-(cyclopropylsulfonyl)phenyl]estra-4,9-dien-3-one]	20	–
Nc1ccn([C@@H]2O[C@H](CO)[C@@H](O)C2(F)F)c(=O)n1 [Gemcitabine, reference compound]	–	relative reduction in GFP fluorescence [2]: 98%
C#CC(F)(F)[C@]1(O)CCC2C3CCC4=CC(=O)CCC4=C3C(c3ccc(OC)cc3)C[C@@]21C (stereo partly drawn) [EC356, 17α-(1,1-difluoro-2-propyn-1-yl)-17β-hydroxy-11β-[4-p-(methoxy)phenyl]estra-4,9-dien-3-one]	2	–
C#CC(F)(F)[C@]1(O)CCC2C3CCC4=CC(=O)CCC4=C3C(c3ccc(CCCCCCC)cc3)C[C@@]21C (stereo partly drawn) [EC362, 17α-(1,1-difluoro-2-propyn-1-yl)-17β-hydroxy-11β-[4-p-(n-heptyl)phenyl]estra-4,9-dien-3-one]	2	–
C#CC(F)(F)[C@]1(O)CCC2C3CCC4=CC(=O)CCC4=C3C(c3ccc(C(=C)C)cc3)C[C@@]21C (stereo partly drawn) [EC358, 17α-(1,1-difluoro-2-propyn-1-yl)-17β-hydroxy-11β-[4-p-(1-methylethenyl)phenyl]estra-4,9-dien-3-one]	2	–
C#CC(F)(F)[C@]1(O)CCC2C3CCC4=CC(=O)CCC4=C3C(c3ccc(C(C)(C)C)cc3)C[C@@]21C (stereo partly drawn) [EC357, 17α-(1,1-difluoro-2-propyn-1-yl)-17β-hydroxy-11β-[4-p-(t-butyl)phenyl]estra-4,9-dien-3-one]	–	melting point: 127 to 129 °C
